ChEMBL document CHEMBL3286291, “Synthesis and biological evaluation of substituted 4,6-diarylpyrimidines and 3,5-diphenyl-4,5-dihydro-1H-pyrazoles as anti-tubercular agents” (Bioorg Med Chem Lett, 2014)

How the values were obtained:
[1] = Cytotoxicity against human THP1 cells by MTT assay; format: cell-based; conditions: THP-1 cells
[2] = system: Mycobacterium tuberculosis; experiment: Antitubercular activity against Mycobacterium tuberculosis H37Rv by microplate alamar blue assay; format: functional
[3] = Selectivity index, ratio of CC50 for human THP1 cells to MIC for Mycobacterium tuberculosis H37Rv; format: toxicity, cell-based; conditions: THP-1 cells, read-out: Selectivity Index

Structure (SMILES)	CC50 [1]	MIC [2]	selectivity ratio [3]
COc1cc(C2CC(c3ccc4c(c3)OCO4)=NN2C(C)=O)cc(OC)c1OC (stereo unspecified)	200 µM	100 µM	
COc1ccc(-c2cc(-c3ccc4c(c3)OCO4)nc(N)n2)cc1		> 100 µM	
COc1cc(-c2cc(-c3ccc(Cl)cc3)nc(N)n2)cc(OC)c1OC		50 µM	
COc1ccc(-c2cc(-c3cc(OC)c(OC)c(OC)c3)nc(-c3cccnc3)n2)cc1	200 µM	100 µM	
COc1cc(-c2cc(-c3ccc(Br)cc3)nc(N)n2)cc(OC)c1OC	100 µM	50 µM	
CC1=NN(C(=O)c2cc(-c3ccc(Cl)cc3)n[nH]2)C(=O)/C1=N/Nc1cccc(F)c1		0.35 µg/mL	
COc1cc(-c2cc(-c3ccc4c(c3)OCO4)nc(N)n2)cc(OC)c1OC	200 µM	> 100 µM	
COc1cc(-c2cc(-c3cc(OC)c(OC)c(OC)c3)nc(N)n2)cc(OC)c1OC		> 100 µM	
COc1cc(-c2cc(-c3ccc(F)cc3)nc(N)n2)cc(OC)c1OC		50 µM	
COc1cc(C2CC(c3ccc(Cl)cc3)=NN2C(C)=O)cc(OC)c1OC (stereo unspecified)	100 µM	12.5 µM	8
COc1ccc(-c2cc(-c3cc(OC)c(OC)c(OC)c3)nc(-c3ccccn3)n2)cc1	50 µM	25 µM	
COc1cc(C2CC(c3ccc(Br)cc3)=NN2C(C)=O)cc(OC)c1OC (stereo unspecified)	100 µM	12.5 µM	8
COc1ccc(-c2cc(-c3cc(OC)c(OC)c(OC)c3)nc(N)n2)cc1	100 µM	25 µM	4
COc1ccc(-c2cc(-c3cc(OC)c(OC)c(OC)c3)nc(-c3ccncc3)n2)cc1		> 100 µM	
COc1cc(-c2cc(-c3ccc4c(c3)OCO4)nc(-c3ccncc3)n2)cc(OC)c1OC	400 µM	> 100 µM	
COc1cc(C2=NN(C(C)=O)C(c3cc(OC)c(OC)c(OC)c3)C2)cc(OC)c1OC (stereo unspecified)	200 µM	> 100 µM	
COc1ccc(C2=NN(C(C)=O)C(c3cc(OC)c(OC)c(OC)c3)C2)cc1 (stereo unspecified)	200 µM	50 µM	4
CCSc1nc(Cl)c(C#N)c(-c2ccc(F)cc2F)n1		0.78 µg/mL	
COc1cc(-c2cc(-c3cc(OC)c(OC)c(OC)c3)nc(-c3ccncc3)n2)cc(OC)c1OC		> 100 µM	
COc1ccc(C2CC(c3ccc4c(c3)OCO4)=NN2C(C)=O)cc1 (stereo unspecified)	200 µM	100 µM	
